Consider two compounds from ChEMBL document CHEMBL4196217, “Structure-Based Drug Design and Identification of H2O-Soluble and Low Toxic Hexacyclic Camptothecin Derivatives with Improved Efficacy in Cancer and Lethal Inflammation Models in Vivo” (J Med Chem, 2018).

One series has as its system A549. In words: cells. The settings on record: Homo sapiens, A549, 48 h.
Series [1] is described as follows: Drug metabolism in plasma of C57BL/6 mouse assessed as (9S)-9-Ethyl-9-hydroxy-3-isopropyl-2,3-dihydro[1,3]-oxazino[5,6-f ]pyrano[3',4':6,7]indolizino[1,2-b]quinoline-1,10,13(9H,12H,15H)-trione formation at 2 mg/kg, iv measured up to 1 hr by LC-MS/MS analysis. It is filed as ADME, organism-based. Particulars: in vivo; call rule not given here.
Series [2] has as its system HepG2. Briefly: Cytotoxicity in human HepG2 cells assessed as reduction in cell viability incubated for 48 hrs by MTT assay. It is filed as functional, cell-based. The settings on record: HepG2, 48 h.
The nature of series [3]: Drug metabolism in plasma of C57BL/6 mouse assessed as (S)-8-Ethyl-8-hydroxy-2-isopropyl-8H-oxazolo[4,5-f ]-pyrano[3',4':6,7]indolizino[1,2-b]quinoline-9,12(11H,14H)-dione formation at 2 mg/kg, iv measured up to 1 hr by LC-MS/MS analysis. Particulars: in vivo. It is filed as ADME, organism-based.
Another series deals with QGY-7703. Briefly: Cytotoxicity in human QGY7703 cells assessed as reduction in cell viability incubated for 48 hrs by MTT assay. The format is functional, cell-based. The settings on record: QGY-7703, 48 h. (Tetrazolium assays rely on reduction of a dye to a coloured formazan, in cell work by metabolically active cells.)
A further series relates to MDA-MB-231. Briefly: Cytotoxicity in human MDA-MB-231 cells assessed as reduction in cell viability incubated for 48 hrs by MTT assay. It is filed as functional, cell-based. The settings on record: MDA-MB-231, 48 h.
Series [4] has as its system Mus musculus. In words: Toxicity in human HepG2 cells xenografted Balb/C mouse assessed as reduction in body weight at 15 mg/kg, iv dosed once per week for 30 days followed by 2 weeks observation. The format is organism-based. The settings on record: in vivo, 336 h. (In general: Xenograft models place foreign cells or tissue in a host animal.)
Series [5] relates to Mus musculus. Briefly: Toxicity in human HepG2 cells xenografted Balb/C mouse assessed as reduction in body weight at 30 mg/kg, iv dosed once per week for 30 days followed by 2 weeks observation. The settings on record: in vivo, 336 h. It is filed as organism-based.
In series [6] the test system is HepG2. In words: Antitumor activity against human HepG2 cells xenografted in Balb/C mouse assessed as inhibition of tumor growth at 15 mg/kg, iv dosed once per week for 30 days followed by 2 weeks observation relative untreated control. Particulars: read-out: TGI. The format is functional.
Series [7] relates to Mus musculus. In words: Protection against LPS-induced lethal inflammation in C57BL/6 mouse model of sepsis assessed as survival at 10 mg/kg, po dosed 0.5 hrs before LPS injection followed by 10 mg/kg, po dosing at 1 hr, 4 hrs, and 8 hrs after LPS treatment. It is filed as functional.
In a further series the test system is SK-N-SH. Briefly: Cytotoxicity in human SK-N-SH cells assessed as reduction in cell viability incubated for 48 hrs by MTT assay. The format is functional, cell-based.
A further series relates to SMMC-7721. Briefly: Cytotoxicity in human SMMC7721 cells assessed as reduction in cell viability incubated for 48 hrs by MTT assay. The format is functional, cell-based. The settings on record: SMMC-7721, 48 h.
Series [8] can be described thus: Drug level in plasma of C57BL/6 mouse at 2 mg/kg, iv measured up to 1 hr by LC-MS/MS analysis. The settings on record: in vivo. It is filed as ADME, organism-based.
Series [9] deals with MGC-803. Briefly: Cytotoxicity in human MGC803 cells assessed as reduction in cell viability incubated for 48 hrs by MTT assay. It is filed as functional, cell-based. Particulars: MGC-803, 48 h.
The next series relates to KB. Briefly: Cytotoxicity in human KB cells assessed as reduction in cell viability incubated for 48 hrs by MTT assay. It is filed as functional, cell-based.
For another series, the system named is Bel-7402. In words: Cytotoxicity in human Bel7402 cells assessed as reduction in cell viability incubated for 48 hrs by MTT assay. It is filed as functional, cell-based. Particulars: Bel-7402, 48 h.
The test system of another series is MCF7. Briefly: cells. The settings on record: Homo sapiens, MCF7, 48 h.
In another series the test system is SGC-7901. Briefly: Cytotoxicity in human SGC7901 cells assessed as reduction in cell viability incubated for 48 hrs by MTT assay. The format is functional, cell-based. The settings on record: SGC-7901, 48 h.
Series [10] relates to MGC-803. In words: Potency index, ratio of IC50 for topotecan to IC50 for test compound for cytotoxicity in human MGC803 cells assessed as reduction in cell viability incubated for 48 hrs by MTT assay. It is filed as functional.
Series [11] deals with HepG2. In words: Potency index, ratio of IC50 for topotecan to IC50 for test compound for cytotoxicity in human HepG2 cells assessed as reduction in cell viability incubated for 48 hrs by MTT assay. The format is functional.

Structures are written as SMILES.

Description for A549: Cytotoxicity in human A549 cells assessed as reduction in cell viability incubated for 48 hrs by MTT assay
Description for MCF7: Cytotoxicity in human MCF7 cells assessed as reduction in cell viability incubated for 48 hrs by MTT assay

One may read the IC50 as the midpoint of a concentration-inhibition curve. As for `CC[C@@]1(OC(=O)CNC(=O)CCC(=O)O)C(=O)OCc2c1cc1n(c2=O)Cc2cc3c(ccc4oc(C(C)C)nc43)nc2-1`, the IC50 was 170 nM in the series with A549; 60 nM in the series with HepG2 [2]; above 10 µM in the series with QGY-7703; 425 nM in the series on MDA-MB-231; 510 nM in the series with SK-N-SH; 8.5 µM in the series on SMMC-7721. Moreover, the half-inhibitory concentration (IC50) with MGC-803 [9] was 62 nM; in the series on KB, 935 nM; with Bel-7402, 425 nM; in the series on MCF7, above 10 µM; in the series on SGC-7901, above 10 µM. In addition, the Drug metabolism entry in series [1] and in series [3] was “Metabolite_Notdetected” in each case. For the same compound, the results for the Activity result in the series with Mus musculus [4], in the series on Mus musculus [5] and in the series with Mus musculus [7] were “Non-Toxic”, “Non-Toxic” and 80%, respectively. The inhibition in vivo at 15 mg/kg in the series with HepG2 [6] was determined as 86%. In addition, the Drug uptake entry in series [8] was “Not Active”.
For the compound `CC[C@@]1(O)C(=O)OCc2c1cc1n(c2=O)Cc2cc3c(ccc4oc(C(C)C)nc43)nc2-1`, the IC50 in the series on A549 is 1390 nM; in the series with HepG2 [2], 16 nM; in the series with QGY-7703 it was 11.6 µM; in the series on MDA-MB-231, 1440 nM; in the series with SMMC-7721, 10.4 µM; in the series with MGC-803 [9], 18 nM. Moreover, the IC50 in the series with KB is 2200 nM; in the series with Bel-7402, 3480 nM; in the series on MCF7 it was 4.64 µM; in the series with SGC-7901 it was above 10 µM. Besides, the “Ratio IC50” value with MGC-803 [10] and in the series with HepG2 [11] was 10 each time.
